Patent US20110213179A1, “METHOD OF EVALUATING EVENNESS OF SUPLATAST TOSILATE CRYSTAL, EVEN CRYSTAL, AND PROCESS FOR PRODUCING THE SAME” (TAIHO PHARMACEUTICAL CO., LTD., priority 2004, published 2011)

Experiment: Stability test: crystals stored at 60° C. for three months, amount of decomposition products
Format: physicochemical
Protocol: Suplatast tosilate crystals of the present invention produced in Examples 3 and 4 (Lots A and B) and first-form suplatast tosilate crystals produced through the method described in Japanese Patent Publication (kokoku) No. 1991-70698 (Lots C, D, and E) (1.0 g for each Lot) were stored at 60° C. for three months for stability measurement. For reference, second-form suplatast tosilate crystals produced through the method described in JP-A-1995-252213 (Lot F) and third-form suplatast tosilate crystals produced through the method described in WO 02/083633 (Lot G) were subjected to stability measurement in a manner similar to that described above.
As is clear from Table 1, all the first-form crystals produced through the conventionally known production method undergo decomposition, but the crystals produced through the production method of the present invention undergo virtually no decomposition and are stable.

| Amount (%) of suplatast tosilate decomposition products produced at 60° C.: Decomposition product 2 (1 month) | Amount (%) of suplatast tosilate decomposition products produced at 60° C.: Decomposition product 3 (1 month) | Amount (%) of suplatast tosilate decomposition products produced at 60° C.: Decomposition product 1 (1 month, p-toluenesulfonate) | Amount (%) of suplatast tosilate decomposition products produced at 60° C.: Total amount of decomposition products (1 month, p-toluenesulfonate) | Amount (%) of suplatast tosilate decomposition products produced at 60° C.: Decomposition product 1 (2 months, p-toluenesulfonate) | Amount (%) of suplatast tosilate decomposition products produced at 60° C.: Decomposition product 2 (2 months, p-toluenesulfonate) | Amount (%) of suplatast tosilate decomposition products produced at 60° C.: Decomposition product 3 (2 months, p-toluenesulfonate) | Amount (%) of suplatast tosilate decomposition products produced at 60° C.: Total amount of decomposition products (2 months, p-toluenesulfonate) | Amount (%) of suplatast tosilate decomposition products produced at 60° C.: Decomposition product 1 (3 months, p-toluenesulfonate) | Amount (%) of suplatast tosilate decomposition products produced at 60° C.: Decomposition product 2 (3 months, p-toluenesulfonate) | Amount (%) of suplatast tosilate decomposition products produced at 60° C.: Decomposition product 3 (3 months, p-toluenesulfonate) | Amount (%) of suplatast tosilate decomposition products produced at 60° C.: Total amount of decomposition products (3 months, p-toluenesulfonate) | SMILES |
| --- | --- | --- | --- | --- | --- | --- | --- | --- | --- | --- | --- | --- |
| 0.0% | 0.0% | 0.1% | 0.1% | 0.6% | 0.3% | 0.2% | 1.1% | 1.3% | 0.4% | 0.4% | 2.1% | CCOCC(O)COc1ccc(NC(=O)CC[S+](C)C)cc1.Cc1ccc(S(=O)(=O)[O-])cc1 (racemic) [First-form crystals Lot C, (±)-[2-[4-(3-ethoxy-2-hydroxypropoxy)phenylcarbamoyl]ethyl]dimethylsulfonium p-toluenesulfonate] |
| 0.0% | 0.0% | 0.0% | 0.0% | 0.4% | 0.2% | 0.1% | 0.7% | 0.9% | 0.3% | 0.3% | 1.5% | CCOCC(O)COc1ccc(NC(=O)CC[S+](C)C)cc1.Cc1ccc(S(=O)(=O)[O-])cc1 (racemic) [First-form crystals Lot D, (±)-[2-[4-(3-ethoxy-2-hydroxypropoxy)phenylcarbamoyl]ethyl]dimethylsulfonium p-toluenesulfonate] |
| 0.0% | 0.0% | 0.0% | 0.0% | 0.3% | 0.1% | 0.1% | 0.5% | 0.9% | 0.2% | 0.3% | 1.4% | CCOCC(O)COc1ccc(NC(=O)CC[S+](C)C)cc1.Cc1ccc(S(=O)(=O)[O-])cc1 (racemic) [First-form crystals Lot E, (±)-[2-[4-(3-ethoxy-2-hydroxypropoxy)phenylcarbamoyl]ethyl]dimethylsulfonium p-toluenesulfonate] |
| 0.0% | 0.0% | 0.0% | 0.0% | 0.0% | 0.0% | 0.0% | 0.0% | 0.0% | 0.0% | 0.0% | 0.0% | CCOCC(O)COc1ccc(NC(=O)CC[S+](C)C)cc1.Cc1ccc(S(=O)(=O)[O-])cc1 (racemic) [Invention crystals (Ex. 3), (±)-[2-[4-(3-ethoxy-2-hydroxypropoxy)phenylcarbamoyl]ethyl]dimethylsulfonium p-toluenesulfonate] |
| 0.0% | 0.0% | 0.0% | 0.0% | 0.0% | 0.0% | 0.0% | 0.0% | 0.0% | 0.0% | 0.0% | 0.0% | CCOCC(O)COc1ccc(NC(=O)CC[S+](C)C)cc1.Cc1ccc(S(=O)(=O)[O-])cc1 (racemic) [Invention crystals (Ex. 4), (±)-[2-[4-(3-ethoxy-2-hydroxypropoxy)phenylcarbamoyl]ethyl]dimethylsulfonium p-toluenesulfonate] |
| 0.0% | 0.0% | 0.0% | 0.0% | 0.0% | 0.0% | 0.0% | 0.0% | 0.1% | 0.1% | 0.0% | 0.2% | CCOCC(O)COc1ccc(NC(=O)CC[S+](C)C)cc1.Cc1ccc(S(=O)(=O)[O-])cc1 (racemic) [Second-form crystals (ref.), (±)-[2-[4-(3-ethoxy-2-hydroxypropoxy)phenylcarbamoyl]ethyl]dimethylsulfonium p-toluenesulfonate] |
| 0.0% | 0.0% | 0.0% | 0.0% | 0.0% | 0.0% | 0.0% | 0.0% | 0.0% | 0.0% | 0.0% | 0.0% | CCOCC(O)COc1ccc(NC(=O)CC[S+](C)C)cc1.Cc1ccc(S(=O)(=O)[O-])cc1 (racemic) [Third-form crystals (ref.), (±)-[2-[4-(3-ethoxy-2-hydroxypropoxy)phenylcarbamoyl]ethyl]dimethylsulfonium p-toluenesulfonate] |
